According to ChEMBL document CHEMBL5291721, “A preclinical secondary pharmacology resource illuminates target-adverse drug reaction associations of marketed drugs” (Nat Commun, 2023):

Columns and labels:
[1] = target: T1, Amine oxidase [flavin-containing] A (Homo sapiens, UniProt P21397); type: functional
T1 sequence (P21397 whole entry): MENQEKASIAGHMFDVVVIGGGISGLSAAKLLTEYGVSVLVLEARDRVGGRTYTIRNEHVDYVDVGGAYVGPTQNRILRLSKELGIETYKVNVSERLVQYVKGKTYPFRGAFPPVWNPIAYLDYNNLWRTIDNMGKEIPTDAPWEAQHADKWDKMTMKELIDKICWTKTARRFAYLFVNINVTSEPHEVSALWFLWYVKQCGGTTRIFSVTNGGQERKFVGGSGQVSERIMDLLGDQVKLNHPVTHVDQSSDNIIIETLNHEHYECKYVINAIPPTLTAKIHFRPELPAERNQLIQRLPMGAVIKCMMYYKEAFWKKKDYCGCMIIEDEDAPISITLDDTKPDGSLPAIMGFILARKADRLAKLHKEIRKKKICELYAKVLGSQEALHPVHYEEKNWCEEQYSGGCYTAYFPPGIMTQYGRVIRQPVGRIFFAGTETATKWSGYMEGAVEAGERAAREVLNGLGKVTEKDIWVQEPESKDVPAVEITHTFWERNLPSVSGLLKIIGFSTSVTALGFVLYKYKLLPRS

[2] = target: T2, Adenosine receptor A1 (Homo sapiens, UniProt P30542)
T2 sequence (P30542 whole entry): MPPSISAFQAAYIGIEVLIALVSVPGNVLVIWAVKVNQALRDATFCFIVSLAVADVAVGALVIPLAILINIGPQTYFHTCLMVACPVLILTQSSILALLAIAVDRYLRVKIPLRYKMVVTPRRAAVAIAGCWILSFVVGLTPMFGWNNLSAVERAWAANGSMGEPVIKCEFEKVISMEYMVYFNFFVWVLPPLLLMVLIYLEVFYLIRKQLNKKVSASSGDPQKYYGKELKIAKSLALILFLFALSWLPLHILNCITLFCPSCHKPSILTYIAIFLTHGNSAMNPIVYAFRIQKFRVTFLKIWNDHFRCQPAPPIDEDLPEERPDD

[3] = target: D(1A) dopamine receptor (Homo sapiens, UniProt P21728); type: functional, cell-based
Chain of D(1A) dopamine receptor (P21728 whole entry): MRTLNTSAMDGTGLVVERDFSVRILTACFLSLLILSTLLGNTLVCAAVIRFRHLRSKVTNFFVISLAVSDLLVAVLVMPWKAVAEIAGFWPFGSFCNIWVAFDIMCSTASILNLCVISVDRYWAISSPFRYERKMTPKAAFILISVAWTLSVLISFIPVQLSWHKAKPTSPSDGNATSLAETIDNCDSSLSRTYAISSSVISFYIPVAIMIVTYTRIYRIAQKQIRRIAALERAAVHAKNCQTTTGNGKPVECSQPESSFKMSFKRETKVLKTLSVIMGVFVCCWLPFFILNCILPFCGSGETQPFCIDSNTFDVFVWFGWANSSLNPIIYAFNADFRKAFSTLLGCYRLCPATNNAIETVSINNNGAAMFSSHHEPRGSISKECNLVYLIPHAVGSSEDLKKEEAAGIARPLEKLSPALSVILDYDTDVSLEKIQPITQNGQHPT

[4] = target: T3, 5-hydroxytryptamine receptor 3A (Homo sapiens, UniProt P46098); type: functional
T3 sequence (P46098 whole entry): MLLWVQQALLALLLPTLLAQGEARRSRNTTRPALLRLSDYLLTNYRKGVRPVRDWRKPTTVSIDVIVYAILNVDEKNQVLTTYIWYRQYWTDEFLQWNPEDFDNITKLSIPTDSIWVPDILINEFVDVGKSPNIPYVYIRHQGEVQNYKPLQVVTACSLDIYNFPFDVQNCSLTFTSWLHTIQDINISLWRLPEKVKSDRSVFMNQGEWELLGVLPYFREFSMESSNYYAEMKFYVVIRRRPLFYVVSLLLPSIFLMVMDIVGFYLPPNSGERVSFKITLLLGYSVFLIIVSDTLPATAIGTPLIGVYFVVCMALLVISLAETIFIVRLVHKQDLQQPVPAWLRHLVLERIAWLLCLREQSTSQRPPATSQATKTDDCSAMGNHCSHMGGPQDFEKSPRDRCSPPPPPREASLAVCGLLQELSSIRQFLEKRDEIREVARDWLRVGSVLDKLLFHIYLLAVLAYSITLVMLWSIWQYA

[5] = target: T4, Adenosine receptor A3 (Homo sapiens, UniProt P0DMS8)
T4 sequence (P0DMS8 whole entry): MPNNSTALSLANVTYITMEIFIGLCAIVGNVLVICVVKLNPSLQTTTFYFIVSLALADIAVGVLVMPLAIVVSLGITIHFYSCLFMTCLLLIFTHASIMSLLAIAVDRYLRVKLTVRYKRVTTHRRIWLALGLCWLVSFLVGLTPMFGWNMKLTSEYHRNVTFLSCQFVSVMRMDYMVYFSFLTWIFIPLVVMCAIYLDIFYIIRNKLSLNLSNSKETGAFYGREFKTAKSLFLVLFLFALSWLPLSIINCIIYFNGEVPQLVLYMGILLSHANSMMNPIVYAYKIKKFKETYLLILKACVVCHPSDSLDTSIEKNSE

[6] = target: T5, Alpha-2A adrenergic receptor (Homo sapiens, UniProt P08913); type: functional, cell-based
T5 sequence (P08913 whole entry): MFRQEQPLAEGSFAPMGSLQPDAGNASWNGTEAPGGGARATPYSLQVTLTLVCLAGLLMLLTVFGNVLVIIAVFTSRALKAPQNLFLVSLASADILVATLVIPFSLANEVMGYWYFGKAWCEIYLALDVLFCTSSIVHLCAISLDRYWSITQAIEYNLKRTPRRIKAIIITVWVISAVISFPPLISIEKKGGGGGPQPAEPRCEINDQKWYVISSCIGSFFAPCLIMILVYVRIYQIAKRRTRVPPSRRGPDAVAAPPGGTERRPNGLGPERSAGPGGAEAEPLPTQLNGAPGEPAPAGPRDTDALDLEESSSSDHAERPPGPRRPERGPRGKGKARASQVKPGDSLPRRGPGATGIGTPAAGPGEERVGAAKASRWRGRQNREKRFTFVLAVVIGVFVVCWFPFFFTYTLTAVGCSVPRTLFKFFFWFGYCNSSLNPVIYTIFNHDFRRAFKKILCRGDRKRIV

[7] = target: Voltage-dependent L-type calcium channel subunit alpha-1C (Rattus norvegicus, UniProt P22002); type: functional
Chain of Voltage-dependent L-type calcium channel subunit alpha-1C (P22002 whole entry): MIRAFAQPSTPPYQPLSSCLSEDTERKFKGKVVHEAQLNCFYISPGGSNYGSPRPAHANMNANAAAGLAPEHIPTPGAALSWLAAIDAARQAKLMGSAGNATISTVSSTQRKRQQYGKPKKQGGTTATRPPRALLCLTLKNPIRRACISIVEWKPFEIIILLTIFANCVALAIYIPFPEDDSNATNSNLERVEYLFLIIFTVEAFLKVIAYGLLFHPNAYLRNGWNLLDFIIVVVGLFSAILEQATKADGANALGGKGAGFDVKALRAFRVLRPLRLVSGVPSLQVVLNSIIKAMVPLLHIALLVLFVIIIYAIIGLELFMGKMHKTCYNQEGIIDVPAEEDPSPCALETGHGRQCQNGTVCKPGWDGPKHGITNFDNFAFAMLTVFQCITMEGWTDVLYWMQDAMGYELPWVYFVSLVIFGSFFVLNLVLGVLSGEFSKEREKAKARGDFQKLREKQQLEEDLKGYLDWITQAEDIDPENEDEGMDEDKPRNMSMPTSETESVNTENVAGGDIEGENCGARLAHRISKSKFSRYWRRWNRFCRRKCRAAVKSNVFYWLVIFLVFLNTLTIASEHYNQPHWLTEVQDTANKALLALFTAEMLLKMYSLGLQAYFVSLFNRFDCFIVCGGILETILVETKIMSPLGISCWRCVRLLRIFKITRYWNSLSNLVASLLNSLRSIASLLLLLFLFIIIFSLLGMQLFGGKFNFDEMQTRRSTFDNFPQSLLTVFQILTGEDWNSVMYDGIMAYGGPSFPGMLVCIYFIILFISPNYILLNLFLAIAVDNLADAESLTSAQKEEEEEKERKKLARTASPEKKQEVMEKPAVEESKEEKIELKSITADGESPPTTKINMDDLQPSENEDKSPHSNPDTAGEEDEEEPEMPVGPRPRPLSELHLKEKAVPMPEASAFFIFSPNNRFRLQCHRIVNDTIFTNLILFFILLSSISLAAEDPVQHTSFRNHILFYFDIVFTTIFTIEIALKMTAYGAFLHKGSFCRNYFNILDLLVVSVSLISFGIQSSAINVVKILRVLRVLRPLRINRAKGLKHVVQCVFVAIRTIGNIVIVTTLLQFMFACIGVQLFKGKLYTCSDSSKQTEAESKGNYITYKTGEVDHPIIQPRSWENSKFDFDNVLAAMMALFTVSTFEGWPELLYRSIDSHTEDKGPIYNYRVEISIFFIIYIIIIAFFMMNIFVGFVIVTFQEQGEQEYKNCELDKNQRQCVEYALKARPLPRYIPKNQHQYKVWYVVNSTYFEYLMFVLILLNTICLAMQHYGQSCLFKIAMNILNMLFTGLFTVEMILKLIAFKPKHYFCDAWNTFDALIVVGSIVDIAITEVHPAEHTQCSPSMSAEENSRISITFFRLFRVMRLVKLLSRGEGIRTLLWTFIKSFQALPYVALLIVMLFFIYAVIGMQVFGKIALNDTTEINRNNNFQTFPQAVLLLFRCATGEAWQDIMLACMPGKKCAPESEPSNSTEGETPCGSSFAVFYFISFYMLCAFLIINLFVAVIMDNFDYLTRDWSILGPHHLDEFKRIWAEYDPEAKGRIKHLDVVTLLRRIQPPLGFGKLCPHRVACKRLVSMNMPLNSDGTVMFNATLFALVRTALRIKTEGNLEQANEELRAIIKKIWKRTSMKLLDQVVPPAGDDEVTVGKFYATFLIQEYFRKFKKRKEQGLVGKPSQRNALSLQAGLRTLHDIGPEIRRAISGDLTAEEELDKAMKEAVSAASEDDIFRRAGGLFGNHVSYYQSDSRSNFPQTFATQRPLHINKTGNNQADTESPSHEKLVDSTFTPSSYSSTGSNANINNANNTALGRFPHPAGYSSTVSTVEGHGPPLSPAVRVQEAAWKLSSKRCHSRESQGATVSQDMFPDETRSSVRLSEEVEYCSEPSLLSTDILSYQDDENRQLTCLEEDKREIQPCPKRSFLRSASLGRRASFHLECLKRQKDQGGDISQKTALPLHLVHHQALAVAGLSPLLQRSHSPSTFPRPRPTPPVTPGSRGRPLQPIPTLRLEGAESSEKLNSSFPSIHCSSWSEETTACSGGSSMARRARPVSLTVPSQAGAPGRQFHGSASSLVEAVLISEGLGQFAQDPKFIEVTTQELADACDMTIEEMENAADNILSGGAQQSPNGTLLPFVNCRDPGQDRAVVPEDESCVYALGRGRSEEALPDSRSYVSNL

[8] = target: Histamine H3 receptor (Homo sapiens, UniProt Q9Y5N1)
Chain of Histamine H3 receptor (Q9Y5N1 whole entry): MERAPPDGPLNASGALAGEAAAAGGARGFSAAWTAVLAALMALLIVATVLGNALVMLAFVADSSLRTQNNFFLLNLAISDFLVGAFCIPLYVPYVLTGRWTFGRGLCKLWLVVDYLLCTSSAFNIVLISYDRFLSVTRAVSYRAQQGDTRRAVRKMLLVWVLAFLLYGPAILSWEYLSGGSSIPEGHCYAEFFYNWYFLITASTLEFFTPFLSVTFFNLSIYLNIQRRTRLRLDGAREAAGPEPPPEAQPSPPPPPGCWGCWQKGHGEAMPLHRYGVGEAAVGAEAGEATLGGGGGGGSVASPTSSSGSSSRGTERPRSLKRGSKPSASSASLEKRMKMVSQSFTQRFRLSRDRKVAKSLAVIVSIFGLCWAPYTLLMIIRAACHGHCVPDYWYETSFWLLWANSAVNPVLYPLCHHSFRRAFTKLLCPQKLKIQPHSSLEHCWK

[9] = target: T6, Type-1 angiotensin II receptor (Homo sapiens, UniProt P30556)
T6 sequence (P30556 whole entry): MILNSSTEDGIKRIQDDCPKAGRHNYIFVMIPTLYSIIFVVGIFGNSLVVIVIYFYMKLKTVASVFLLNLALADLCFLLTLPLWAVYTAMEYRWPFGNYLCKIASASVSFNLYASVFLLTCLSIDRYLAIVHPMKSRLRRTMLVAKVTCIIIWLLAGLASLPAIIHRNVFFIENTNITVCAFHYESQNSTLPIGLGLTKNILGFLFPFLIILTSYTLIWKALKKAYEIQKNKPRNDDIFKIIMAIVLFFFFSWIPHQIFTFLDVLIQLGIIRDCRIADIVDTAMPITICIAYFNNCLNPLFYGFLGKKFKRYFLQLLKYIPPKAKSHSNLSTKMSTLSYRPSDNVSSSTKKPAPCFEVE
Note: assay procedure not described here.

Row | SMILES | AC50 [1] [µM] | AC50 [2] [µM] | AC50 [3] [µM] | AC50 [4] [µM] | AC50 [5] [µM] | AC50 [6] [µM] | AC50 [7] [µM] | AC50 [8] [µM] | AC50 [9] [µM]
1 | COc1ccc(C(=O)Nc2ccccc2CCC2CCCCN2C)cc1 (stereo unspecified) [ENCAINIDE] | > 10 | > 30 | > 10 | > 30 | > 30 | > 10 | > 10 | > 10 | > 30
2 | O=[N+]([O-])c1cn2c(n1)OC[C@@H](OCc1ccc(OC(F)(F)F)cc1)C2 [PRETOMANID] | – | > 30 | – | > 10 | > 30 | – | > 10 | – | > 30
3 | CCOc1ccccc1OCC1CNCCO1 (stereo unspecified) [VILOXAZINE] | > 10 | > 30 | > 10 | > 10 | > 30 | > 10 | > 10 | > 10 | > 30
4 | COC1=C(OC)C(=O)C(C/C=C(\C)CC/C=C(\C)CC/C=C(\C)CC/C=C(\C)CC/C=C(\C)CC/C=C(\C)CC/C=C(\C)CC/C=C(\C)CC/C=C(\C)CCC=C(C)C)=C(C)C1=O [UBIDECARENONE] | > 30 | – | > 30 | > 30 | – | > 30 | – | – | –
5 | CN(C)CCc1c[nH]c2ccc(C[C@H]3COC(=O)N3)cc12 [ZOLMITRIPTAN] | > 30 | > 30 | > 30 | > 30 | > 30 | > 30 | – | > 30 | > 30
6 | C=CCN1C[C@H](C(=O)N(CCCN(C)C)C(=O)NCC)C[C@@H]2c3cccc4[nH]cc(c34)C[C@H]21 [CABERGOLINE] | > 10 | > 10 | 0.0367 | > 30 | > 10 | – | > 10 | – | > 10
7 | CCCC1O[C@@H]2C[C@H]3[C@@H]4CCC5=CC(=O)C=C[C@]5(C)[C@H]4[C@@H](O)C[C@]3(C)[C@]2(C(=O)CO)O1 (stereo partly specified) [BUDESONIDE] | > 10 | > 10 | > 10 | > 30 | > 10 | > 10 | > 10 | > 10 | > 10
8 | CN1CCN(C2=Nc3ccccc3Sc3ccc(Cl)cc32)CC1 [CLOTHIAPINE] | > 30 | – | > 30 | 9 | – | > 30 | – | – | –
9 | CN(C)CCC=C1c2ccccc2C=Cc2ccccc21 [CYCLOBENZAPRINE] | > 10 | > 30 | > 10 | > 30 | > 30 | > 10 | > 10 | > 10 | > 30
10 | Cc1cc(C)c(NC(=O)CN(CC(=O)O)CC(=O)O)c(C)c1Br [MEBROFENIN] | > 30 | – | > 30 | > 30 | – | > 30 | – | – | –
11 | CC[C@H]1CN2CCc3cc(OC)c(OC)cc3[C@@H]2C[C@@H]1C[C@H]1NCCc2cc(OC)c(OC)cc21 [EMETINE] | > 30 | > 30 | > 30 | > 30 | > 30 | > 30 | – | > 30 | > 30
